# Target: Protein phosphatase 1 catalytic subunit (Oryctolagus cuniculus)
# Assay: Inhibitory activity against protein phosphatase-1 from rabbit skeletal muscle
row,Structure (SMILES),IC50 [µM]
1,CCOC(=O)c1ccc(NC(=O)C2C(C(=O)O)[C@@H]3C=C[C@H]2O3)cc1 (stereo partly specified),76
2,"COC(=O)c1cccc(NC(=O)C2C(C(=O)O)[C@@H]3C=C[C@H]2O3)c1 (stereo partly drawn) [(1S,4R)-3-(3-Methoxycarbonyl-phenylcarbamoyl)-7-oxa-bicyclo[2.2.1]hept-5-ene-2-carboxylic acid]",60
3,"CNC(=O)C1C(C(=O)O)[C@@H]2C=C[C@H]1O2 (stereo partly drawn) [(1S,4R)-3-Methylcarbamoyl-7-oxa-bicyclo[2.2.1]hept-5-ene-2-carboxylatemethyl-ammonium;]",> 100

# Next, values leading:
row,IC50 [µM],Structure (SMILES)
1,> 100,"N#CC[C@]12C=C[C@H](O1)[C@@H]1C(=O)OC(=O)C12 (stereo partly drawn) [((1R,6R,7S)-3,5-Dioxo-4,10-dioxa-tricyclo[5.2.1.0*2,6*]dec-8-en-1-yl)-acetonitrile]"
2,> 100,"CC(=O)NC[C@@]12CC[C@@H](O1)C1C(=O)OC(=O)[C@H]12 (stereo partly drawn) [N-((1S,2R,7R)-3,5-Dioxo-4,10-dioxa-tricyclo[5.2.1.0*2,6*]dec-1-ylmethyl)-acetamide]"
3,> 100,"CC(=O)NC[C@@]12C=C[C@@H](O1)C1C(=O)OC(=O)[C@H]12 (stereo partly drawn) [N-((1S,2R,7R)-3,5-Dioxo-4,10-dioxa-tricyclo[5.2.1.0*2,6*]dec-8-en-1-ylmethyl)-acetamide]"

# Source: BindingDB's records for doi:10.1016/j.bmcl.2004.01.093 (University of California Irvine, 2004)
